Test results reported in US9765018B2, “IDO inhibitors” (BRISTOL-MYERS SQUIBB COMPANY, priority 2013, dated 2017).

target: IDO (Homo sapiens (Human), UniProt P14902); test: Kynurenine assay in IFN-γ-stimulated Hela cells; type: cell-based; conditions: 20 h, read-out: Hela Kyurenine (IC50)
Protocol: Reagents: Hela cells (ATCC, CCL-2)
IFNg (R&D, 28-IF-100)—resuspend at 10 ug/mL in PBS with 0.1% BSA 30% TCA
Ehrlich reagent (2% w/v p-dimethylaminobenzaldehyde in glacial acetic acid)
Cell Lines and Culture Conditions
Hela cancer cell lines were acquired from the American Type Culture Collection. Cells were maintained in phenol red free-RPMI1640 medium containing high glucose and L-glutamine (Invitrogen) supplemented with 10% fetal bovine serum (FBS; Invitrogen). Cell cultures were incubated at 37° C., 5% CO2, and 100% humidity.
Cell Treatment and Kynurenine Assay
Hela cells were seeded on 96-well plates (40,000 cells per well) and allowed to adhere for 5-6 hours. Cells were then treated with vehicle (DMSO) or with IDO inhibitor at a top dose of 30 μM (3-fold dilution all the way down to 1.5 nM). A final concentration of 100 ng/mL of human recombinant IFN-γ (R&D, 28-IF-100) was immediately added to the cells to stimulate IDO expression. Treated cells were then incubated for 20 hours at 37° C. At the end of the 20 h incubation, reactions were terminated by the addition of 30% TCA to each well. Plates were incubated for 30 minutes at 50° C. to hydrolyze N-formylkynurenine to kynurenine. Cells were centrifuged 10 minutes at 2400 rpm. 100 ul of supernatants were transferred to new 96 flat well plates and mixed with 100 ul Ehrlich reagent. The resulting solution was incubated 10 minutes at RT. Absorbance at 490 nm was read using Spectra Max 384 (Molecular Devices).

IDO, sequence (P14902 whole entry): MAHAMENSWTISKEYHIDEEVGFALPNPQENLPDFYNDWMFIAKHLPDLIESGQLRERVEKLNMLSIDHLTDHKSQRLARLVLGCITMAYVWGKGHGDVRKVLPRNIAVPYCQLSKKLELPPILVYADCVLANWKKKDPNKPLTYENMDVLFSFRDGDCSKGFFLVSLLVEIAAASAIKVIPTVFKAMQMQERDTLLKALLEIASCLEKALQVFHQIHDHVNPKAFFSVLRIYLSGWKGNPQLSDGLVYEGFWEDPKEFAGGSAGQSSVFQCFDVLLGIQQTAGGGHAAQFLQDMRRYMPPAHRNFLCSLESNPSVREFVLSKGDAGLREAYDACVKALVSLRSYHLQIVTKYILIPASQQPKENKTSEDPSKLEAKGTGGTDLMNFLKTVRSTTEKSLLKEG

Compound | IC50
COc1ccc(-c2ccc(Oc3ccccc3C(C)(C)C)c(NC(=O)NC3CCCCC3)c2)cc1C(=O)O [Example 91, 4′-(2-(tert-butyl)phenoxy)-3′-(3-(cyclohexyl)ureido)-4-methoxy-[1,1′-biphenyl]-3-carboxylic acid] | 250 nM
COc1ccc(-c2ccc(Oc3ccccc3C(C)(C)C)c(NC(=O)Nc3cccc(C)c3C)c2)cc1C(=O)O [Example 92, 4′-(2-(tert-butyl)phenoxy)-3′-(3-(2,3-dimethylphenyl)ureido)-4-methoxy-[1,1′-biphenyl]-3-carboxylic acid] | 240 nM
COc1ccc(NC(=O)Nc2cc(-c3ccc(OC)c(C(=O)O)c3)ccc2Oc2ccccc2C(C)(C)C)c(C)c1 [Example 93, 4′-(2-(tert-butyl)phenoxy)-4-methoxy-3′-(3-(4-methoxy-2-methylphenyl)ureido)-[1,1′-biphenyl]-3-carboxylic acid] | 620 nM
COc1ccc(-c2ccc(Oc3ccccc3C(C)(C)C)c(NC(=O)Nc3cc(C)ccc3C)c2)cc1C(=O)O [Example 95, 4′-(2-(tert-butyl)phenoxy)-3′-(3-(2,5-dimethylphenyl)ureido)-4-methoxy-[1,1′-biphenyl]-3-carboxylic acid] | 260 nM
COc1ccc(-c2ccc(Oc3ccccc3C(C)(C)C)c(NC(=O)Nc3ccc(C)c(C)c3)c2)cc1C(=O)O [Example 96, 4′-(2-(tert-butyl)phenoxy)-3′-(3-(3,4-dimethylphenyl)ureido)-4-methoxy-[1,1′-biphenyl]-3-carboxylic acid] | 180 nM
COc1ccc(-c2ccc(Oc3ccccc3C(C)(C)C)c(NC(=O)Nc3cccc(Cl)c3C)c2)cc1C(=O)O [Example 98, 4′-(2-(tert-butyl)phenoxy)-3′-(3-(3-chloro-2-methylphenyl)ureido)-4-methoxy-[1,1′-biphenyl]-3-carboxylic acid] | 160 nM
COc1ccc(-c2ccc(Oc3ccccc3C(C)(C)C)c(NC(=O)Nc3ccc(C(C)(C)C)cc3)c2)cc1C(=O)O [Example 99, 4′-(2-(tert-butyl)phenoxy)-3′-(3-(4-(tert-butyl)phenyl)ureido)-4-methoxy-[1,1′-biphenyl]-3-carboxylic acid] | 220 nM
COc1ccc(-c2ccc(Oc3ccccc3C(C)(C)C)c(NC(=O)Nc3ccc(C)cc3F)c2)cc1C(=O)O [Example 100, 4′-(2-(tert-butyl)phenoxy)-3′-(3-(2-fluoro-4-methylphenyl)ureido)-4-methoxy-[1,1′-biphenyl]-3-carboxylic acid] | 470 nM
COc1ccc(-c2ccc(Oc3ccccc3C(C)(C)C)c(NC(=O)Nc3ccc(N(C)C)cc3)c2)cc1C(=O)O [Example 101, 4′-(2-(tert-butyl)phenoxy)-3′-(3-(4-(dimethylamino)phenyl)ureido)-4-methoxy-[1,1′-biphenyl]-3-carboxylic acid] | 1010 nM
COc1ccc(-c2ccc(Oc3ccccc3C(C)(C)C)c(NC(=O)Nc3ccc4c(c3)CCC4)c2)cc1C(=O)O [Example 102, 4′-(2-(tert-butyl)phenoxy)-3′-(3-(2,3-dihydro-1H-inden-5-yl)ureido)-4-methoxy-[1,1′-biphenyl]-3-carboxylic acid] | 220 nM
COc1ccc(-c2ccc(Oc3ccccc3C(C)(C)C)c(NC(=O)Nc3cc(Cl)ccc3Cl)c2)cc1C(=O)O [Example 104, 4′-(2-(tert-butyl)phenoxy)-3′-(3-(2,5-dichlorophenyl)ureido)-4-methoxy-[1,1′-biphenyl]-3-carboxylic acid] | 100 nM
COc1ccc(-c2ccc(Oc3ccccc3C(C)(C)C)c(NC(=O)Nc3ccc(Cl)c(Cl)c3)c2)cc1C(=O)O [Example 105, 4′-(2-(tert-butyl)phenoxy)-3′-(3-(3,4-dichlorophenyl)ureido)-4-methoxy-[1,1′-biphenyl]-3-carboxylic acid] | 370 nM
COc1ccc(-c2ccc(Oc3ccccc3C(C)(C)C)c(NC(=O)Nc3cccc(C#N)c3)c2)cc1C(=O)O [Example 108, 4′-(2-(tert-butyl)phenoxy)-3′-(3-(3-cyanophenyl)ureido)-4-methoxy-[1,1′-biphenyl]-3-carboxylic acid] | 720 nM
COc1ccc(Cl)cc1NC(=O)Nc1cc(-c2ccc(OC)c(C(=O)O)c2)ccc1Oc1ccccc1C(C)(C)C [Example 109, 4′-(2-(tert-butyl)phenoxy)-3′-(3-(5-chloro-2-methoxyphenyl)ureido)-4-methoxy-[1,1′-biphenyl]-3-carboxylic acid] | 600 nM
C#CCNC(=O)Nc1cc(-c2ccc(OC)c(C(=O)O)c2)ccc1Oc1ccccc1C(C)(C)C [Example 119, 4′-(2-tert-butylphenoxy)-4-methoxy-3′-(3-prop-2-ynylureido)biphenyl-3-carboxylic acid] | 780 nM
CC(C)(C)c1ccccc1Oc1ccc(-c2ccccc2C(=O)O)cc1NC(=O)Nc1ccccc1Cl [Example 155, 4′-(2-tert-butylphenoxy)-3′-(3-(2-chlorophenyl)ureido)biphenyl-2-carboxylic acid] | 450 nM

Compound | IC50
Cc1cccc(NC(=O)Nc2cc(-c3ccc(Cl)cc3C(=O)O)ccc2Oc2ccccc2C(C)(C)C)c1 [Example 160, 4′-(2-tert-butylphenoxy)-4-chloro-3′-(3-m-tolylureido)biphenyl-2-carboxylic acid] | 1320 nM
CC(C)(C)c1ccccc1Oc1ccc(-c2ccccc2-c2nnn[nH]2)cc1NC(=O)Nc1ccccc1Cl [Example 179, 1-(4-(2-tert-butylphenoxy)-2′-(1H-tetrazol-5-yl)biphenyl-3-yl)-3-(2-chlorophenyl)urea] | 210 nM
Cc1cccc(NC(=O)Nc2cc(-c3ccccc3-c3nnn[nH]3)ccc2Oc2ccccc2C(C)(C)C)c1 [Example 182, 1-(4-(2-tert-butylphenoxy)-2′-(1H-tetrazol-5-yl)biphenyl-3-yl)-3-m-tolylurea] | 1050 nM
CC(C)(C)c1ccccc1Oc1ccc(-c2ccccc2-c2nnn[nH]2)cc1NC(=O)Nc1ccccc1C(F)(F)F [Example 183, 1-(4-(2-tert-butylphenoxy)-2′-(1H-tetrazol-5-yl)biphenyl-3-yl)-3-(2-(trifluoromethyl)phenyl)urea] | 690 nM
O=C(Nc1ccccc1)Nc1cc(-c2ccccc2-c2nnn[nH]2)ccc1Oc1cccc2c1CCCC2 [Example 184, 1-phenyl-3-(4-(5,6,7,8-tetrahydronaphthalen-1-yloxy)-2′-(1H-tetrazol-5-yl)biphenyl-3-yl)urea] | 1100 nM
O=C(Nc1ccccc1Cl)Nc1cc(-c2ccccc2-c2nnn[nH]2)ccc1Oc1cccc2c1CCCC2 [Example 186, 1-(2-chlorophenyl)-3-(4-(5,6,7,8-tetrahydronaphthalen-1-yloxy)-2′-(1H-tetrazol-5-yl)biphenyl-3-yl)urea] | 1130 nM
Cc1ccccc1NC(=O)Nc1cc(-c2ccc(C(=O)O)cc2)ccc1Oc1ccccc1C(C)(C)C [Example 200, 4′-(2-tert-butylphenoxy)-3′-- (3-o-tolylureido) biphenyl-4-carboxylic acid] | 1520 nM
CC(C)(C)c1ccccc1Oc1ccc(-c2ccc(C(=O)O)cc2)cc1NC(=O)Nc1ccccc1Cl [Example 202, 4′-(2-tert-butylphenoxy)-3′-(3-(2-chlorophenyl)ureido)biphenyl-4-carboxylic acid] | 1690 nM
O=C(Nc1ccccc1Cl)Nc1cc(-c2ccc(C(=O)O)c(Cl)c2)ccc1Oc1ccccc1C(F)(F)F [Example 203, 3-chloro-3′-(3-(2-chlorophenyl)ureido)-4′-(2-(trifluoromethyl)phenoxy)biphenyl-4-carboxylic acid] | 500 nM
Cc1cccc(NC(=O)Nc2cc(-c3ccc(C(=O)O)c(Cl)c3)ccc2Oc2ccccc2C(F)(F)F)c1 [Example 204, 3-chloro-3′-(3-m-tolylureido)-4′-(2-(trifluoromethyl)phenoxy)biphenyl-4-carboxylic acid] | 1250 nM
Cc1ccc(NC(=O)Nc2cc(-c3ccc(C(=O)O)c(Cl)c3)ccc2Oc2ccccc2C(F)(F)F)cc1 [Example 205, 3-chloro-3′-(3-p-tolylureido)-4′-(2-(trifluoromethyl)phenoxy)biphenyl-4-carboxylic acid] | 850 nM
O=C(Nc1ccc(C(F)(F)F)cc1)Nc1cc(-c2ccc(C(=O)O)c(Cl)c2)ccc1Oc1ccccc1C(F)(F)F [Example 207, 3-chloro-4′-(2-(trifluoromethyl)phenoxy)-3′-(3-(4-(trifluoromethyl)phenyl)ureido) biphenyl-4-carboxylic acid] | 1230 nM
CC(C)(C)c1ccccc1Oc1ccc(-c2ccc(C(=O)O)cc2)cc1NC(=O)Nc1ccc(C(F)(F)F)cc1 [Example 209, 4′-(2-tert-butylphenoxy)-3′-(3-(4-(trifluoromethyl)phenyl)ureido) biphenyl-4-carboxylic acid] | 1740 nM
CC(C)(C)c1ccccc1Oc1ccc(-c2ccc(C(=O)O)cc2)cc1NC(=O)Nc1ccccc1C(F)(F)F [Example 210, 4′-(2-tert-butylphenoxy)-3′-(3-(2-(trifluoromethyl)phenyl)ureido) biphenyl-4-carboxylic acid] | 1540 nM
COc1cc(-c2ccc(Oc3ccccc3C(C)(C)C)c(NC(=O)Nc3ccccc3C)c2)ccc1C(=O)O [Example 211, 4′-(2-tert-butylphenoxy)-3-methoxy-3′-(3-o-tolylureido) biphenyl-4-carboxylic acid] | 1630 nM
